Consider 18 molecules from patent US12624018B1, “Inhibitors of RIPK2 and medical uses thereof” (Odyssey Therapeutics, Inc., priority 2022, dated 2026).

Like-named read-outs stand apart in the source and are kept apart here.

One assay has as its system human NOD2 signaling. Briefly: Inhibition of human NOD2 signaling in HEK-Blue-hNOD2 cells (L18-MDP stimulated, SEAP reporter). Format: cell-based. As to conditions: NOD2 ligand stimulation, SEAP reporter, read-out: hNOD2 IC50. The procedure:
Materials: Human NOD32-expressing 1TEK293 cells, HEK-Blue™-hNOD2 cells, were developed by Invivogen (catalogue number: hkb-hnod2) using co-transfection of the human NOD2 gene and an optimized secreted embryonic alkaline phosphatase (SEAP) reporter gene into HTEK293 cells. The cell maintenance medium consisted of DMEM (Giboc, 21063-029), heat inactivated FBS, penicillin (100 U/mL), streptomycin (100 μg/mL), Normocin (100 μg/mL), Blasticidin (30 μg/mL), and Zeocin (100 μg/mL). HEK-Blue™-hNOD2 cells were transferred to assay medium consisting of DMEM (Giboc, 21063-029), heat inactivated FBS, penicillin (100 U/mL) and streptomycin (100 μg/mL) prior to stimulation. Stimulation with a NOD2 ligand, L18-MDP (Invivogen, catalogue number: tlrl-lmdp) activated NF-κB and AP-1 which induced the production of SEAP. Levels of SEAP were determined with HEK-Blue™ Detection (referred to as QUANTI-Blue solution), a cell culture medium that allows for real-time detection of SEAP. QUANTI-Blue solution was prepared by adding 1 mL of QB reagent and 1 mL of QB buffer to 98 mL of sterile H2O. Test compounds were prepared into a 10 mM DMSO solution and were serially diluted into 10 points using a 3-fold dilution in a 384 well plate using a TECAN EVO200.
Method: In a 384 well plate, 40 nL of test compound was dispensed using Echo550. HEK-Blue™-hNOD2 cells (Invivogen) were prepared into a cell suspension and 40 μL of the cell suspension (12500 cells per well) was dispensed into the 384 well plate. To activate NOD2 signaling, 40 nL of L18-MDP (final concentration of 0.5 ng/mL) was added and the plate was incubated at 37° C. in a CO2 incubator for 24 hours. After the 24-hour incubation, 5 μL of the induced HEK-Blue hNOD2 cell supernatant was transferred to a new 384-well plate, centrifuged, and 45 μL of QUANTI-Blue solution was added per well and incubated for 3 hours at 37° C. SEAP levels were measured using an Ensight at 620 nm. Percent inhibition of NOD2 signaling was determined using the following equation: (high control−test compound signal)/(High control−low control)×100. The reaction high control was determined using wells with DMSO, cells, L18-MDP, and QUANTI-Blue solution. The reaction low control was determined using wells with DMSO, cells, and QUANTI-Blue solution. 4-parametric curve fit was used to determine the test compound concentration that results in 50% reduction of L18-MDP-driven human NOD2 signaling.
Using the assay described above, inhibition of hNOD2 signaling was also evaluated for GSK 2983559 (Haile at al., J. Med. Chem. 2019, 62, 14, 6482-6494), a known RIPK2 kinase inhibitor: […]

The target in another assay is T1, RIPK2 enzyme (Homo sapiens, UniProt O43353).
T1 construct: purchased Carna 09-128
T1 sequence (O43353 1-299 limits assumed): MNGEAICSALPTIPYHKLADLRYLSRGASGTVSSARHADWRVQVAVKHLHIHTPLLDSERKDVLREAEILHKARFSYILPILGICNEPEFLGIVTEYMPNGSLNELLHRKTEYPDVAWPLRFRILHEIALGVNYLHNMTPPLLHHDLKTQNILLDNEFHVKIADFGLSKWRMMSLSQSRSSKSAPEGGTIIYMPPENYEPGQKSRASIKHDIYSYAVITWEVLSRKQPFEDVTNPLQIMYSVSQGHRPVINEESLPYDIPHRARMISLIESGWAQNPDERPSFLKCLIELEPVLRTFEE
Briefly: RIPK2 inhibition (ADP-Glo Kinase Assay). Format: biochemical. As to conditions: RIPK2 5 nM, ATP 150 μM, MBP substrate, read-out: RIPK2 IC50. An outline of the steps: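 Human RIPK2 (5 nM) preincubated with compound 30 min at room temperature in 50 mM HEPES pH 7.5, 10 mM MgCl2, 2 mM DTT, 1 mM EGTA, 0.01% Brij-35, 0.05% BSA; native swine MBP as substrate. ADP formed quantified by ADP-Glo luminescence; percent inhibition relative to DMSO and no-enzyme controls.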
(In general: In ADP-Glo the light output rises with the ADP produced.)

[1] abbreviates: Homo sapiens, HEK-Blue hNOD2, HEK-Blue-hNOD2 cells.

Consider `CCS(=N)(=O)c1ccc2nccc(Oc3ccc(CC(=O)Nc4cnn(C56CC(C5)C6)c4)cc3C)c2c1` (single isomer, unassigned) [Compound 593, N-(1-(bicyclo[1.1.1]pentan-1-yl)-1H-pyrazol-4-yl)-2-(4-((6-(ethylsulfonimidoyl)quinolin-4-yl)oxy)-3-methylphenyl) acetamide], for which the values for the 50% inhibitory concentration (IC50) with human NOD2 signaling (setting [1]) and at RIPK2 enzyme were 6.7 nM and < 2.5 nM, respectively.

In the case of `Cc1cc(CC(=O)Nc2cnn(C(C)C(F)(F)F)c2)ccc1Oc1ccnc2ccc(S(C)(=O)=O)cc12` (single isomer, unassigned) [Compound 594, 2-(3-methyl-4-((6-(methylsulfonyl)quinolin-4-yl)oxy)phenyl)-N-(1-(1,1,1-trifluoropropan-2-yl)-1H-pyrazol-4-yl)acetamide], the 50% inhibitory concentration (IC50) – broadly, the concentration that gives 50% inhibition – with human NOD2 signaling (setting [1]) was 27 nM; on RIPK2 enzyme, < 2.5 nM.

In the case of `Cc1cc(CC(=O)Nc2cnn(C(C)C(F)(F)F)c2)ccc1Oc1ccnc2ccc(S(C)(=O)=O)cc12` (single isomer, unassigned) [Compound 595, 2-(3-methyl-4-((6-(methylsulfonyl)quinolin-4-yl)oxy)phenyl)-N-(1-(1,1,1-trifluoropropan-2-yl)-1H-pyrazol-4-yl)acetamide], the concentration for half-maximal inhibition (IC50) is 19.3 nM in the assay on human NOD2 signaling (HEK-Blue-hNOD2 cells) and < 2.5 nM on RIPK2 enzyme.

For the molecule `Cc1cc(CC(=O)Nc2cnn(C(C)(C)C)c2)ccc1Oc1ccnc2ccc(C(O)C(N)=O)cc12` (single isomer, unassigned) [Compound 609, 2-(4-((6-(2-amino-1-hydroxy-2-oxoethyl)quinolin-4-yl)oxy)-3-methylphenyl)-N-(1-(tert-butyl)-1H-pyrazol-4-yl)acetamide], the IC50 with human NOD2 signaling (setting [1]) was 46.3 nM; on RIPK2 enzyme it was < 2.5 nM.

As for `Cc1cc(CC(=O)Nc2cnn(C(C)(C)C)c2)ccc1Oc1ccnc2ccc(C(C)(O)C(N)=O)cc12` (single isomer, unassigned) [Compound 615, 2-(4-(4-(2-((1-(tert-butyl)-1H-pyrazol-4-yl)amino)-2-oxoethyl)-2-methylphenoxy)quinolin-6-yl)-2-hydroxypropanamide], the IC50 with human NOD2 signaling (setting [1]) turned out to be 17.5 nM; on RIPK2 enzyme it was 2.8 nM.

As to `Cc1cc(CC(=O)Nc2cnn(C(C)(C)C)c2)ccc1Oc1ccnc2ccc(C(C)(O)C(N)=O)cc12` (single isomer, unassigned) [Compound 616, 2-(4-(4-(2-((1-(tert-butyl)-1H-pyrazol-4-yl)amino)-2-oxoethyl)-2-methylphenoxy)quinolin-6-yl)-2-hydroxypropanamide], the figures for the IC50 with human NOD2 signaling (HEK-Blue-hNOD2 cells) and at RIPK2 enzyme were 22.4 nM and < 2.5 nM, respectively.

For `Cc1cc(CC(=O)Nc2cc(C(C)(C)C)[nH]n2)ccc1Oc1ccnc2cc(F)c(S(C)(=N)=O)cc12` (single isomer, unassigned) [Compound 620, N-(5-(tert-butyl)-1H-pyrazol-3-yl)-2-(4-((7-fluoro-6-(S-methylsulfonimidoyl)quinolin-4-yl)oxy)-3-methylphenyl) acetamide], the results for the IC50 in the assay on human NOD2 signaling (setting [1]) and at RIPK2 enzyme were 6.7 nM and < 2.5 nM, respectively.

In the case of `Cc1cc(CC(=O)Nc2cc(C(C)(C)C)[nH]n2)ccc1Oc1ccnc2cc(F)c(S(C)(=N)=O)cc12` (single isomer, unassigned) [Compound 621, N-(5-(tert-butyl)-1H-pyrazol-3-yl)-2-(4-((7-fluoro-6-(S-methylsulfonimidoyl)quinolin-4-yl)oxy)-3-methylphenyl) acetamide], the IC50 with human NOD2 signaling (HEK-Blue-hNOD2 cells) was 11.7 nM; at RIPK2 enzyme, < 2.5 nM.

For `CC(C)(C)n1cc(NC(=O)Cc2ccc(Oc3ccnc4ccc(C(N)=O)cc34)c(C(F)F)c2)cn1` [Compound 462, 4-(4-(2-((1-(tert-butyl)-1H-pyrazol-4-yl)amino)-2-oxoethyl)-2-(difluoromethyl)phenoxy) quinoline-6-carboxamide], the IC50 in the assay on human NOD2 signaling (setting [1]) is 7.5 nM; at RIPK2 enzyme, < 2.5 nM.

For the molecule `CNC(=O)c1ccc2nccc(Oc3ccc(CC(=O)Nc4cnn(C(C)(C)C)c4)cc3C(F)F)c2c1` [Compound 463, 4-(4-(2-((1-(tert-butyl)-1H-pyrazol-4-yl)amino)-2-oxoethyl)-2-(difluoromethyl)phenoxy)-N-methylquinoline-6-carboxamide], the IC50 in the assay with human NOD2 signaling (setting [1]) was 4 nM; on RIPK2 enzyme it was < 2.5 nM.

Consider `Cc1cc(CC(=O)Nc2cnn(C(C)(C)C)c2)c(F)cc1Oc1ccnc2ccc(-c3ncccc3C)cc12` [Compound 475, N-(1-(tert-butyl)-1H-pyrazol-4-yl)-2-(2-fluoro-5-methyl-4-((6-(3-methylpyridin-2-yl)quinolin-4-yl)oxy)phenyl)acetamide], for which the values for the concentration for half-maximal inhibition (IC50) with human NOD2 signaling (setting [1]) and on RIPK2 enzyme were 54 nM and 4.2 nM, respectively.

Turning to `Cc1cc(CC(=O)Nc2cnn(C(C)(C)C)c2)c(F)cc1Oc1ccnc2ccc(-c3c[nH]nc3O)cc12` [Compound 478, N-(1-(tert-butyl)-1H-pyrazol-4-yl)-2-(2-fluoro-4-((6-(3-hydroxy-1H-pyrazol-4-yl)quinolin-4-yl)oxy)-5-methylphenyl)acetamide], the IC50 with human NOD2 signaling (setting [1]) is 26 nM; on RIPK2 enzyme, < 2.5 nM.

As to `COc1n[nH]cc1-c1ccc2nccc(Oc3cc(F)c(CC(=O)Nc4cnn(C(C)(C)C)c4)cc3C)c2c1` [Compound 480, N-(1-(tert-butyl)-1H-pyrazol-4-yl)-2-(2-fluoro-4-((6-(3-methoxy-1H-pyrazol-4-yl)quinolin-4-yl)oxy)-5-methylphenyl)acetamide], the IC50 with human NOD2 signaling (setting [1]) was 0.8 nM; on RIPK2 enzyme it was < 2.5 nM.

For `CCc1nc(-c2ccc3nccc(Oc4cc(F)c(CC(=O)Nc5cnn(C(C)(C)C)c5)cc4C)c3c2)n[nH]1` [Compound 483, N-(1-(tert-butyl)-1H-pyrazol-4-yl)-2-(4-((6-(5-ethyl-1H-1,2,4-triazol-3-yl)quinolin-4-yl)oxy)-2-fluoro-5-methylphenyl)acetamide], the half-inhibitory concentration (IC50) in the assay with human NOD2 signaling (setting [1]) was 0.6 nM; on RIPK2 enzyme, < 2.5 nM.

For the molecule `Cc1cc(CC(=O)Nc2cnn(C(C)(C)C)c2)c(F)cc1Oc1ccnc2ccc(-c3nc[nH]n3)cc12` [Compound 484, 2-(4-((6-(1H-1,2,4-triazol-3-yl)quinolin-4-yl)oxy)-2-fluoro-5-methylphenyl)-N-(1-(tert-butyl)-1H-pyrazol-4-yl)acetamide], the IC50 is 0.4 nM with human NOD2 signaling (setting [1]) and < 2.5 nM on RIPK2 enzyme.

Take `[2H]C([2H])([2H])c1cc(CC(=O)Nc2cnn(C(C)(C)C)c2)ccc1Oc1ccnc2ccc(S(=O)(=O)C([2H])([2H])[2H])cc12` [Compound 485, N-(1-(tert-butyl)-1H-pyrazol-4-yl)-2-(3-(methyl-d3)-4-((6-((methyl-d3)sulfonyl)quinolin-4-yl)oxy)phenyl)acetamide]: the 50% inhibitory concentration (IC50) with human NOD2 signaling (setting [1]) is 0.3 nM; on RIPK2 enzyme, < 2.5 nM.

For the molecule `CSc1ccc2nccc(Oc3ccc(CC(=O)Nc4cnn(C(C)(C)C)c4)cc3C)c2c1` [Compound 486, N-(1-(tert-butyl)-1H-pyrazol-4-yl)-2-(3-methyl-4-((6-(methylthio)quinolin-4-yl)oxy)phenyl)acetamide], the IC50 with human NOD2 signaling (setting [1]) was 1.8 nM; on RIPK2 enzyme it was < 2.5 nM.

`[2H]C([2H])([2H])NC(=O)c1ccc2nccc(Oc3ccc(CC(=O)Nc4cnn(C(C)(C)C)c4)cc3C)c2c1` [Compound 491, 4-(4-(2-((1-(tert-butyl)-1H-pyrazol-4-yl)amino)-2-oxoethyl)-2-methylphenoxy)-N-(methyl-d3)quinoline-6-carboxamide]: the IC50 in the assay on human NOD2 signaling (setting [1]) is 0.1 nM; on RIPK2 enzyme, < 2.5 nM.
